Reference: PubChem BioAssay AID2253 (Southern Research Specialized Biocontainment Screening …, 2010)

Test system: THP-1 viability, CellTiter-Glo luminescence, 72 h
Test: THP-1 cell cytotoxicity, dose response, cytotoxicity control for Salmonella PhoP regulon inhibitors, S. typhimurium screen hits (AID 2253)

| SMILES | EC50 [µM] |
| --- | --- |
| CCCC(=O)NC(c1ccc(Cl)cc1)c1ccc2cccnc2c1O (centres undefined) | 0.38 |
| O=C(Nc1ccc(O)cc1)c1cc2n(n1)C(C(F)(F)F)CC(c1ccco1)N2 (centres undefined) | 11.9 |
| N#CC(C#N)=c1ccc2c(c1)NC1(CCCCC1)N=2 | 4.08 |
| C/C(=N\Nc1nc2ccccc2[nH]1)c1ccccn1 | 0.92 |
| N#CC1=C(N)N=C(SCc2cccc3ccccc23)C(C(N)=O)C12CCCCC2 (centres undefined) | 20.9 |
| O=C(Oc1c(CN2CCOCC2)cc(Cl)c2cccnc12)c1ccc(F)cc1 | 7.06 |
| COc1cccc(/C=N/Nc2ncc(C(F)(F)F)cc2Cl)c1O | 0.97 |
| CCc1ccc(CNc2ccc(O)cc2)cc1 | 17.1 |
| O=C(N/N=C/c1ccc([N+](=O)[O-])s1)C(O)c1ccccc1 (centres undefined) | 12.1 |
| CC1OC(Nc2cccc3ccccc23)C(O)C(O)C1O (centres undefined) | 12 |
| Cc1cccc(C)c1NC(=O)CCCSc1nnc(-c2ccc(Cl)cc2)n1-c1ccccc1 | 27.6 |
| Cc1cc(C)c2ccc(N)nc2c1O | 2.91 |
| Nc1ncn([C@@H]2O[C@H](CO)[C@@H](O)[C@H]2O)c(=O)n1 | 17.4 |
| O=C(c1ccco1)[C@@H]1[C@@H]2C(=O)N(c3ccc(F)cc3)C(=O)[C@@H]2[C@H]2C=Cc3ccccc3N21 | 23.5 |
| CCOc1cc(/C=N/N=C(N)N)ccc1OCc1ccc(Cl)cc1 | 5.19 |
| NCCCC[C@H]1CN=C(N)N1CCC12CC3CC(CC(C3)C1)C2 | 33.1 |
| O=C1/C(=C/c2ccccc2)NC(=S)N1C(c1ccccc1)c1ccccc1 | 4.48 |
| COc1ccc(-n2c(CNc3ccc(C)cc3)nnc2SCc2ccccc2)cc1 | 33.3 |
| COc1ccc(OC)c(C2=Nn3c(nnc3-c3cc(OC)c(OC)c(OC)c3)SC2)c1 | 22.6 |
| Nc1c(Cl)ncnc1N/N=C/c1ccccn1 | 0.47 |
| O=C(N/N=C/c1ccc(Sc2ccccn2)o1)c1cc2ccccc2cc1O | 35.4 |
| CCOC(=O)C1=Nc2ccccc2C1=[N+]=[N-] | 27.2 |
| CCCn1c(NCc2c[nH]c3ccccc23)nc2ccccc21 | 22.9 |

| SMILES | EC50 [µM] |
| --- | --- |
| CSc1ccc(C(=O)/C=C/c2ccc(N)cc2)cc1 | 21.7 |
| Cc1ccc(-n2sc3ccccc3c2=O)cc1S(=O)(=O)N1CCCCC1 | 2.75 |
| O=c1ccc2ccc(Oc3ccc([N+](=O)[O-])cc3[N+](=O)[O-])cc2o1 | 7.86 |
| Oc1ccc(NCc2ccccc2OCc2ccccc2F)cc1 | 19.9 |
| CCOC(=O)Cn1nnnc1C(C(C)C)N(Cc1cccs1)Cc1cc2cc(C)ccc2[nH]c1=O (centres undefined) | 10.5 |
| CCCc1cc(-c2nc(N)ncc2-c2ccc3c(c2)OCCCO3)c(O)cc1OC | 19.9 |
| CC(C)(C)c1nn(-c2ccccc2)c2[nH]c(=O)c(CNCc3ccco3)cc12 | 49.6 |
| O=[N+]([O-])c1ccc(Sc2nc3ccccc3o2)c([N+](=O)[O-])c1 | 1.94 |
| Cc1cc(C)n(-c2nc(NCCN(C)C)c3c4c(sc3n2)CCCC4)n1 | 4.63 |
| CN1CCN(C(c2ccc(Br)cc2)c2cc(Cl)c3cccnc3c2O)CC1 (centres undefined) | 3.87 |
| Cc1ccc(C(C[N+](=O)[O-])c2c(N)n(C)c(=O)n(C)c2=O)cc1 (centres undefined) | 34.2 |
| CSc1ccc2c(c1)C(N1CCN(C)CC1)Cc1ccccc1S2 (centres undefined) | 10.6 |
| O=C(/C=C/c1ccco1)Oc1cc(Br)cc(/C=N/NC(=O)c2ccccc2O)c1 | 0.35 |
| CCCCCCCCCCCCCCCC[N+](C)(C)CC | 0.7 |
| Cc1ccccc1-n1nnnc1Sc1nnnn1-c1ccccc1 | 12 |
| CNc1nc(-c2ccccn2)nnc1-c1ccccc1 | 8.38 |
| O=S(=O)(Nc1ccc(N=Nc2ccc(O)c3ccccc23)cc1)c1ccccc1 | 22 |
| O=c1[nH][nH]c(-c2ccccc2O)c1C(C[N+](=O)[O-])c1ccc(Br)cc1 (centres undefined) | 16 |
| C[C@H]1c2cccc(O)c2C(O)=C2C(=O)C3(O)C(O)=C(C(N)=O)C(=O)[C@@H](N(C)C)[C@@H]3[C@@H](O)[C@@H]21 (some centres undefined) | 34.4 |
| Oc1cccc2ccc(Nc3ccccn3)nc12 | 2.16 |
| Oc1c(C(Nc2ccccn2)c2ccccn2)ccc2cccnc12 (centres undefined) | 4.23 |
| Cc1nc2c(C(=O)NCCC(C)C)c[nH]n2c(=O)c1Cc1ccccc1F | 30.7 |
| Oc1ccc(CN2CCCc3ccccc32)c2cccnc12 | 3.37 |

| SMILES | EC50 [µM] |
| --- | --- |
| Cc1ccc(NC(=O)NCC2CCN(Cc3cccc(Cl)c3)CC2)cc1Cl | 13.9 |
| O=C(Nc1ccccc1)Nc1ccc(Cl)c([N+](=O)[O-])c1 | 14.2 |
| OC(c1cc(C(F)(F)F)nc2c(Cl)cc(Cl)cc12)C1CCCCN1 (centres undefined) | 12.6 |
| O=C1C(Nc2ccccc2)=C/C(=N/S(=O)(=O)c2cccs2)c2ccccc21 | 1.5 |
| CC(C)NC1=C(Cl)C(=O)c2ccccc2C1=O | 18.9 |
| COc1cccc(Cn2cnc3c(NS(=O)(=O)c4cccc(Cl)c4Cl)c(C)c(C)cc32)c1 | 40.4 |
| Cc1cc(C(C)(C)CC(C)(C)C)ccc1OCCOCC[N+](C)(C)Cc1ccccc1 | 1.61 |
| N=c1n(CC(=O)c2ccc([N+](=O)[O-])cc2)c2ccccc2n1Cc1ccccc1 | 14.3 |
| CCCOc1ccc(Br)cc1CSC(=N)N | 5.31 |
| C(=C\c1ccccc1)/C=N/Nc1nc2ccccc2[nH]1 | 15.5 |
| O=C(CSc1ccccn1)N/N=C/c1cc([N+](=O)[O-])ccc1O | 17.1 |
| Cc1onc(-c2ccccc2)c1C(=O)NC(=S)NNC(=O)c1ccc(O)cc1O | 1.87 |
| Cc1ccc(Cn2c(=N)n(CC(=O)c3ccc([N+](=O)[O-])cc3)c3ccccc32)cc1 | 8.18 |
| Nc1nonc1-n1nnc(C(=O)N/N=C/c2ccc(Br)cc2)c1CSC1=NCCS1 | 23.7 |
| O=[N+]([O-])c1ccc(NCCCNS(=O)(=O)c2ccccc2)c(Cl)c1 | 42.4 |
| Cc1ccc(C(=O)N/N=C/c2cc(Br)ccc2O)cn1 | 1.78 |
| O=C(Nc1nc(-c2ccncc2)cs1)C1c2ccccc2Oc2ccccc21 | 16.9 |
| COc1ccc(NC(C)C(=O)Nc2ccc(C(C)(C)C)cc2)cc1Cl (centres undefined) | 40.7 |
| C/C(CC(=O)Nc1ccc(Cl)c(C(F)(F)F)c1)=N\NC(=O)c1cc2ccccc2cc1O | 8.06 |
| C=C1c2c(Cl)ccc(O)c2C(O)=C2C(=O)[C@]3(O)C(O)=C(C(N)=O)C(=O)[C@@H](N(C)C)[C@@H]3[C@@H](O)C12 (some centres undefined) | 13 |
| CN1CCN(CCCN2c3ccccc3Sc3ccc(Cl)cc32)CC1 | 14.1 |
| C/C(CC(=O)Nc1ccc(Cl)c(C(F)(F)F)c1)=N\NC(=O)c1ccccc1O | 20.4 |
| Oc1c(Cl)cc(Cl)c2cccnc12 | 12.8 |

| SMILES | EC50 [µM] |
| --- | --- |
| Clc1ccc(Nc2ccc(NCc3ccccc3)nn2)cc1 | 21.3 |
| CN(C)c1ccc(/C=C/c2ccc3ccccc3[n+]2C)cc1 | 0.3 |
| c1ccc(C2CNCc3c2ccc2ccccc32)cc1 (centres undefined) | 11 |
| COc1ccc(/C=N/Nc2cc(C)nc3ccccc23)cc1 | 7.59 |
| O=C1C(SCCO)=C(SCCO)C(=O)c2ccccc21 | 8.13 |
| O=C(N/N=C/c1cc([N+](=O)[O-])ccc1O)C1CC1 | 26 |
| O=C1NC2=C(CCc3ccccc32)C(c2ccc(Br)cc2)N1 (centres undefined) | 19.3 |
| C#CCOCCOCCOCCNc1nc(N2CCN(C(=O)CCCCCCCCCCNC(=O)[C@H](CCCN=C(N)N)n3cc(C[C@@H](C)CC)nn3)CC2)nc(N2CCN(C(=O)CCCCCCCCCCNC(=O)[C@@H]([C@H](C)CC)n3cc(CCCCCN)nn3)CC2)n1 | 5.33 |
| O=c1[nH][nH]c(-c2ccccc2O)c1C(C[N+](=O)[O-])c1cccc(Cl)c1 (centres undefined) | 33.4 |
| C#CCOCCOCCOCCNc1nc(N2CCN(C(=O)CCCCCCCCCCNC(=O)[C@H](CO)n3cc(CCCCCN)nn3)CC2)nc(N2CCN(C(=O)CCCCCCCCCCNC(=O)[C@H](CCCN=C(N)N)n3cc(C[C@@H](C)CC)nn3)CC2)n1 | 8.9 |
| S=C(NCc1cccnc1)Nc1ccc(Cl)c(Cl)c1 | 40 |
| COc1cccc(/C=N/NC(=O)c2ccc(-c3ccccc3)cc2)c1O | 1.08 |
| CCCCCCOC(=O)C[N+](C)(C)CCOC1CC2CCC1(C)C2(C)C (centres undefined) | 2.8 |
| OCc1ccc(O)c2ncccc12 | 3.26 |
| CC(C)NCCCOc1ccc(Cl)cc1Br | 44.7 |
| Cc1ccccc1OCCSCc1nc2ccccc2[nH]1 | 30.4 |
| C/C(=N\NC(=O)c1cc2ccccc2cc1O)c1ccccn1 | 0.76 |
| CCCCOc1ccc(CSC(=N)N)cc1[N+](=O)[O-] | 16.5 |
| Oc1ccc(N=Cc2ccc(O)c(O)c2)cc1 | 7.64 |
| O=[N+]([O-])c1cc(/C=N/Nc2nc3ccccc3[nH]2)c(O)cc1O | 1.21 |
| O=S1(=O)CCC(NC(=S)SCCOc2ccccc2)C1 (centres undefined) | 16.2 |
| Cc1[nH]nc2c1C(c1cc(Br)cs1)C(C#N)=C(N)O2 (centres undefined) | 11.2 |
| NNC(=O)c1cc2ccccc2cc1O | 11.9 |

| SMILES | EC50 [µM] |
| --- | --- |
| CN1CCc2c(sc(NC(=O)c3ccc([N+](=O)[O-])o3)c2C(N)=O)C1 | 0.61 |
| O=C(O)CSc1cc(NS(=O)(=O)c2cccc([N+](=O)[O-])c2)c2ccccc2c1O | 8.07 |
| O=C(C[n+]1cc(-c2ccc(Cl)cc2)n2c1CCC2)Nc1nc(-c2ccccc2)cs1 | 43.3 |
| Cc1nc2c(=O)n(C)c(=O)n(C)c2nc1Cl | 7.48 |
| CCCCCCCCCCOC(=O)Cn1c(COc2cccc(C)c2)[n+](C)c2ccccc21 | 4.4 |
| NC1=NC(=Nc2ccc(Cl)cc2)c2ccccc21 | 22.4 |
| N=c1n(Cc2ccc(Cl)cc2)c2ccccc2n1CC(O)c1ccco1 (centres undefined) | 11.8 |
| CC(C)CCNCC(O)CON=C1c2ccccc2-c2ccccc21 (centres undefined) | 10.2 |
| O=C1c2ccccc2NC(c2ccc(-c3cccc(Cl)c3)o2)N1O (centres undefined) | 24.6 |
| CCOC(=O)N1CCN(C(c2cccnc2)c2ccc3cccnc3c2O)CC1 (centres undefined) | 9.3 |
| O=C(c1[nH]ncc1-c1ccc(Cl)cc1)C1CO1 (centres undefined) | 13.3 |
| CCOC(=O)C(C)/C(C)=N/NC(=O)c1cc2ccccc2cc1O (centres undefined) | 6.99 |
| NCCc1c(-c2ccccc2)n(-c2ccccc2)c2ccccc12 | 4.76 |
| COc1cnc(-c2ccccn2)[nH]c1=O | 25.6 |
| Cc1ccc(O)c(-c2cc(-c3cccc(F)c3)n[nH]2)c1 | 18.2 |
| O=C(N/N=C/C1CC=CCC1)c1ccc(Cl)cc1O (centres undefined) | 26.4 |
| Brc1cccc(CNc2nc3ccccc3n2CCN2CCCCC2)c1 | 26.3 |
| CCOC(=O)c1ccc(-c2ccc(C3Nc4ccccc4C(=O)N3O)o2)cc1 (centres undefined) | 9.38 |
| COc1cccc(C2CC(=O)Nc3cc(OC)c(OC)c(OC)c32)c1OC (centres undefined) | 46.2 |
| FC(F)(F)c1ccc2c(c1)N(CCCN1CCN(CCCl)CC1)c1ccccc1S2 | 20.6 |
| CCCCCCOC(=O)Sc1nc2ccccc2o1 | 35 |
| CC1N(C)c2cc(NC(=O)c3ccco3)ccc2C1(C)C (centres undefined) | 7.51 |
